In ChEMBL document CHEMBL3991601, “The target landscape of clinical kinase drugs” (Science, 2017):
Activity calls are given as the source filed them. On the calls: in the data inactive means no Kd found up to 30 µM.

Experiments:
[1] = biological target: T1, Very long-chain specific acyl-CoA dehydrogenase, mitochondrial (Homo sapiens, UniProt P49748)
T1 sequence (P49748 whole entry): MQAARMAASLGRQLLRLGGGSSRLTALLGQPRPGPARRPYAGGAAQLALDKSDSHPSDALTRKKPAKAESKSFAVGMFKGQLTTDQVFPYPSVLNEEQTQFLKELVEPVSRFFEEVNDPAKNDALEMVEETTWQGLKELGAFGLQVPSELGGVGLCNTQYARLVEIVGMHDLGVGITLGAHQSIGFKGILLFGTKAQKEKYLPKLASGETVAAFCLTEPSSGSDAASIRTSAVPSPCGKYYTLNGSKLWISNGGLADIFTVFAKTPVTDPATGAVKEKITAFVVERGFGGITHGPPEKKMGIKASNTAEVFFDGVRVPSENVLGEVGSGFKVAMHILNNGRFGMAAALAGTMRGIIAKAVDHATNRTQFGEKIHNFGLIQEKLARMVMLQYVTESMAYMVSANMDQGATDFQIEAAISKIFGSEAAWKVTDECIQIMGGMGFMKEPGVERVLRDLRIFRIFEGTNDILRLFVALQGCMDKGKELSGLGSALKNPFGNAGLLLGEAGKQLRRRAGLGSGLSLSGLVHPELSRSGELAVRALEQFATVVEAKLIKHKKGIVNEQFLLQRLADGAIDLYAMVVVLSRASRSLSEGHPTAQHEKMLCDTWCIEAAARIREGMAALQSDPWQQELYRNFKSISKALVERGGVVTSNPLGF

[2] = biological target: T2, Cysteine--tRNA ligase, cytoplasmic (Homo sapiens, UniProt P49589)
T2 sequence (P49589 whole entry): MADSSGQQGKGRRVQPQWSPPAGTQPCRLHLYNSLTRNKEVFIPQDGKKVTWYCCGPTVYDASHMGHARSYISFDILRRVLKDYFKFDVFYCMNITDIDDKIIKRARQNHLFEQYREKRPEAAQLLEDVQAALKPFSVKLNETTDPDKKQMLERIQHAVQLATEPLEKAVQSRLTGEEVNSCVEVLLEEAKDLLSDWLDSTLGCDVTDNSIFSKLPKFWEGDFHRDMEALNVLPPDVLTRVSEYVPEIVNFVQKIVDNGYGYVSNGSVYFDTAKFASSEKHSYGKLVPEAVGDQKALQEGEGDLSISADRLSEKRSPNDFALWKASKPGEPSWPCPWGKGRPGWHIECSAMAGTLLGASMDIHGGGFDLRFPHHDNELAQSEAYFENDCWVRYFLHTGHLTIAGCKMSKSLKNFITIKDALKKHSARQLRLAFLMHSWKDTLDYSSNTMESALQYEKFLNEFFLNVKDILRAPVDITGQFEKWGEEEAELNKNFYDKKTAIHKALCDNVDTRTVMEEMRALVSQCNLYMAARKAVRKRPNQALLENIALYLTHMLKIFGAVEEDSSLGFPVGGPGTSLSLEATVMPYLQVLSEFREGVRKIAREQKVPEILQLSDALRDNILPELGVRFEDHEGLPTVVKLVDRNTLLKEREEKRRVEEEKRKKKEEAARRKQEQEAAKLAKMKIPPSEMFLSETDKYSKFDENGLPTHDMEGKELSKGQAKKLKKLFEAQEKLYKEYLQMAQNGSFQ

GTP-binding protein 4 = GTP-binding protein 4 (Homo sapiens, UniProt Q9BZE4)
[3] = biological target: T3, ATP-dependent 6-phosphofructokinase, platelet type (Homo sapiens, UniProt Q01813)
T3 sequence (Q01813 whole entry): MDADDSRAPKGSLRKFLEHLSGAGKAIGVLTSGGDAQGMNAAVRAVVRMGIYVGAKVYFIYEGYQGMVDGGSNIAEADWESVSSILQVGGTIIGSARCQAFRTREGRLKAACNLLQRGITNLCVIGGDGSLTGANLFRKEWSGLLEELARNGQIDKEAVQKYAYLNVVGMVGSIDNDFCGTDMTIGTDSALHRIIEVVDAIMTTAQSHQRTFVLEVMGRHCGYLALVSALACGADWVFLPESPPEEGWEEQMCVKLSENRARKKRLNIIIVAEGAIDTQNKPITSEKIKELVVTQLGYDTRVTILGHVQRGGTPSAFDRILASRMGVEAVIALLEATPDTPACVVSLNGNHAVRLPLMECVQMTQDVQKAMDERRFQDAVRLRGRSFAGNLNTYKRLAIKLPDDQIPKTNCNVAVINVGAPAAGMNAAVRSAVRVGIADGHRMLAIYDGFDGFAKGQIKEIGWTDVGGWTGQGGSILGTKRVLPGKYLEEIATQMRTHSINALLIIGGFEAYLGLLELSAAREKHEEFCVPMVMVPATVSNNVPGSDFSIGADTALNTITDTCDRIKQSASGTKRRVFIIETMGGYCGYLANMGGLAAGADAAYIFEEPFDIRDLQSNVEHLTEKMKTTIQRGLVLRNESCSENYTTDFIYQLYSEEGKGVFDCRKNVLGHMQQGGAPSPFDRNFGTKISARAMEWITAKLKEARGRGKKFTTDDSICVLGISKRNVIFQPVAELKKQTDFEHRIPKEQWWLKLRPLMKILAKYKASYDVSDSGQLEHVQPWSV

[4] = biological target: T4, Ras-related protein Rab-27A (Homo sapiens, UniProt P51159)
T4 sequence (P51159 whole entry): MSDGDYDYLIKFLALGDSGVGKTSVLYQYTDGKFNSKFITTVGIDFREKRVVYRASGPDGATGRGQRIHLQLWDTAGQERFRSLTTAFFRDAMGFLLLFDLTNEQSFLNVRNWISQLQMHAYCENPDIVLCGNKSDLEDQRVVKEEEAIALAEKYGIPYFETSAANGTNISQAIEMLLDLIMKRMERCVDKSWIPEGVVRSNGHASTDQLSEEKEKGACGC

Compound	Kd [1]	Kd [2]	Kd (GTP-binding protein 4)	Kd [3]	Kd [4]
CN1N=C(N)c2cn([C@@H]3O[C@H](COP(=O)(O)O)[C@@H](O)[C@H]3O)c3ncnc1c23 [TRICIRIBINE PHOSPHATE]	> 30 µM (inactive)	> 30 µM (inactive)	> 30 µM (inactive)	> 30 µM (inactive)	> 30 µM (inactive)
CC[C@@H]1C(=O)N(C)c2cnc(Nc3ccc(C(=O)N[C@H]4CC[C@H](N5CCN(CC6CC6)CC5)CC4)cc3OC)nc2N1C(C)C [VOLASERTIB]	> 30 µM (inactive)	> 30 µM (inactive)	> 30 µM (inactive)	> 30 µM (inactive)	> 30 µM (inactive)
O=C(Nc1ccc(-c2ccnc(Nc3ccc(N4CCOCC4)cc3)n2)cc1)C1CCCN1 (stereo not given) [XL-019]	> 30 µM (inactive)	> 30 µM (inactive)	> 30 µM (inactive)	> 30 µM (inactive)	> 30 µM (inactive)

Other lines, results leading:

Kd [1]	Kd [2]	Kd (GTP-binding protein 4)	Kd [3]	Kd [4]	Compound
> 30 µM (inactive)	> 30 µM (inactive)	> 30 µM (inactive)	> 30 µM (inactive)	> 30 µM (inactive)	COc1cc2nccc(Oc3ccc(NC(=O)Nc4cc(C)on4)c(Cl)c3)c2cc1OC [TIVOZANIB]
> 30 µM (inactive)	> 30 µM (inactive)	> 30 µM (inactive)	> 30 µM (inactive)	> 30 µM (inactive)	CC(=O)Nc1cccc(-n2c(=O)n(C3CC3)c(=O)c3c(Nc4ccc(I)cc4F)n(C)c(=O)c(C)c32)c1 [TRAMETINIB]
> 30 µM (inactive)	> 30 µM (inactive)	> 30 µM (inactive)	> 30 µM (inactive)	> 30 µM (inactive)	CC(C)Nc1cc(-c2c[nH]c(C(=O)N[C@H](CO)c3cccc(Cl)c3)c2)c(Cl)cn1 [ULIXERTINIB]
> 30 µM (inactive)	> 30 µM (inactive)	> 30 µM (inactive)	> 30 µM (inactive)	> 30 µM (inactive)	CCCS(=O)(=O)Nc1ccc(F)c(C(=O)c2c[nH]c3ncc(-c4ccc(Cl)cc4)cc23)c1F [VEMURAFENIB]
